Measured values as given in patent US9593149B2, “Amylin and calcitonin receptor agonist” (Novo Nordisk A/S, priority 2014, dated 2017).
Values after ≈ are worked out from the molar mass of the structure shown. Numbered stars: 1 amine (or outer) side, 2 acyl side, 3 side chain; on linkers, the order of the positions; unused ones are H or OH. Side chains are listed from the residue outwards. Peptide text beside a SMILES is read from it. * marks the point of attachment. C20 diacid = O=C(O)CCCCCCCCCCCCCCCCCCC(=O)*; C18 diacid = O=C(O)CCCCCCCCCCCCCCCCC(=O)*; γGlu = O=C(O)[C@H](CCC(=O)[*:2])N[*:1]

Key:
[1] = Assay (IV) determination of solubility; format: physicochemical
Method: Assay (IV)—Determination of Solubility
The mimylin peptide was dissolved in water at ˜500 nmol/ml and mixed 1:1 with a series of buffers (100 mM glycylglycine pH 3.0, 100 mM glycylglycine pH 4.0, 100 mM glycylglycine pH 5.0, 100 mM bistrispropane pH 6.0, 100 mM bistrispropane pH 6.5, 100 mM bistrispropane pH 7.0, 100 mM bistrispropane pH 7.5, 100 mM bistrispropane pH 8.0).

[2] = molecular target: T1, human amylin 3(a) receptor (human calcitonin receptor + RAMP-3), BHK570 cells (Homo sapiens, UniProt O60896+P30988); test: Assay (II)b functional CRE-luciferase assay without albumin, human amylin receptor; format: cell-based; conditions: Tested without HSA; read-out: hAmylin-R funct. EC50
T1 construct: host or cells: BHK570
In short: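 Agonism measured as CRE-driven luciferase luminescence after 3 h sample exposure at 37 °C, without albumin (0.1% ovalbumin, Hepes pH 7.4 medium). Reporter cells: BHK570 carrying human calcitonin receptor, co-transfected with RAMP-3 to form the amylin 3(a) receptor.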

[3] = molecular target: T1, human amylin 3(a) receptor (human calcitonin receptor + RAMP-3), BHK570 cells; test: Assay (II)a functional CRE-luciferase assay with albumin, human amylin receptor; format: cell-based; conditions: Tested with HSA; read-out: hAmylin-R funct. EC50
In short: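 BHK570 cells stably carry a CRE-luciferase reporter and the calcitonin receptor; co-transfected RAMP-3 gives the amylin 3(a) receptor line. Cells were treated for 3 h at 37 °C in DMEM with 10% FBS and 10 mM Hepes, pH 7.4. cAMP-driven luciferase was read by LucLite luminescence after 30 min at RT.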

T1 sequence (O60896 24-148): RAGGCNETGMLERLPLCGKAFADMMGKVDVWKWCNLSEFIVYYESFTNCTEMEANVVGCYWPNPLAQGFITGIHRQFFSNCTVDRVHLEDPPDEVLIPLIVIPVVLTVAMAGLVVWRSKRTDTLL
T1 sequence (P30988 25-474): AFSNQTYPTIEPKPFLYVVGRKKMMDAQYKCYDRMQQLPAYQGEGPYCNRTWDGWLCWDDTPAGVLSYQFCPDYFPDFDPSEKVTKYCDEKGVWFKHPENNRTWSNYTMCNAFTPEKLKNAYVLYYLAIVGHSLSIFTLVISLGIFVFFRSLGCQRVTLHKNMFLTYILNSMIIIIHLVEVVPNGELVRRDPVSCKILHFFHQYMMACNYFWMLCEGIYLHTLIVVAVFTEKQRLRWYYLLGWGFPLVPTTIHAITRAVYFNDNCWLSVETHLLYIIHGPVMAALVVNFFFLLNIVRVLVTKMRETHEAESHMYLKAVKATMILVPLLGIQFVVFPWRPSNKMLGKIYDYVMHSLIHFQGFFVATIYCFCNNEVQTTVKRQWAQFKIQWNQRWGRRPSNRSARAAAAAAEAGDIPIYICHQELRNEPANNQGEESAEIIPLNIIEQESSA

| SMILES | Solubility ([1]; pH 3.0) | Solubility ([1]; pH 4.0) | Solubility ([1]; pH 5.0) | Solubility ([1]; pH 6.0) | Solubility ([1]; pH 6.5) | Solubility ([1]; pH 7.0) | Solubility ([1]; pH 7.5) | Solubility ([1]; pH 8.0) | EC50 [2] [nM] | solubility at 18 h ([1]; bistrispropane buffer, pH 6.5) [µM] | solubility at 18 h ([1]; bistrispropane buffer, pH 7.5) [µM] | solubility at 18 h ([1]; bistrispropane buffer, pH 6.0) [µM] | solubility at 18 h ([1]; bistrispropane buffer, pH 7.0) [µM] | solubility at 18 h ([1]; bistrispropane buffer, pH 8.0) [µM] | solubility at 18 h ([1]; glycylglycine buffer, pH 3.0) [µM] | solubility at 18 h ([1]; glycylglycine buffer, pH 4.0) [µM] | solubility at 18 h ([1]; glycylglycine buffer, pH 5.0) [µM] | EC50 [3] [nM] |
| --- | --- | --- | --- | --- | --- | --- | --- | --- | --- | --- | --- | --- | --- | --- | --- | --- | --- | --- |
| CC(C)C[C@H](NC(=O)[C@H](C)NC(=O)[C@H](C)NC(=O)[C@@H](NC(=O)[C@H](CO)NC(=O)[C@H](CC(C)C)NC(=O)[C@H](CCC(=O)O)NC(=O)[C@H](CO)NC(=O)[C@H](C)NC(=O)[C@H](CCC(=O)O)NC(=O)CCCCCCCCCCCCCCCCC(=O)O)[C@@H](C)O)C(=O)NCC(=O)N[C@@H](CCCNC(=N)N)C(=O)N[C@@H](CC(C)C)C(=O)N[C@@H](CO)C(=O)N[C@@H](C)C(=O)N[C@@H](CCC(=O)O)C(=O)N[C@@H](CC(C)C)C(=O)N[C@@H](Cc1cnc[nH]1)C(=O)N[C@@H](CCC(=O)O)C(=O)N[C@@H](CC(C)C)C(=O)N[C@@H](C)C(=O)N[C@H](C(=O)N[C@@H](CC(C)C)C(=O)N1CCC[C@H]1C(=O)N[C@@H](CCCNC(=N)N)C(=O)N[C@H](C(=O)N[C@@H](CCC(=O)O)C(=O)N[C@H](C(=O)NCC(=O)N1CCC[C@H]1C(=O)N[C@@H](CCC(=O)O)C(=O)N[C@@H](CO)C(=O)N1CCC[C@H]1C(N)=O)[C@@H](C)O)[C@@H](C)O)[C@@H](C)O [Ex. #2, [N-terminal(C18 diacid)]mimylin] ({C18 diacid}-EASELSTAALGRLSAELHELATLPRTETGPESP-NH2) | ≧200 μM | ≧200 μM | ≧200 μM | ≧200 μM | ≧200 μM | ≧200 μM | ≧200 μM | ≧200 μM |  |  |  |  |  |  |  |  |  |  |
| CC(C)C[C@H](NC(=O)[C@H](C)NC(=O)[C@H](C)NC(=O)[C@@H](NC(=O)[C@H](CO)NC(=O)[C@H](CC(C)C)NC(=O)[C@H](CCC(=O)O)NC(=O)[C@H](CO)NC(=O)[C@H](C)NC(=O)[C@H](C)NC(=O)CC[C@H](NC(=O)CCCCCCCCCCCCCCCCCCC(=O)O)C(=O)O)[C@@H](C)O)C(=O)NCC(=O)N[C@@H](CCCNC(=N)N)C(=O)N[C@@H](CC(C)C)C(=O)N[C@@H](CO)C(=O)N[C@@H](C)C(=O)N[C@@H](CCC(=O)O)C(=O)N[C@@H](CC(C)C)C(=O)N[C@@H](Cc1c[nH]cn1)C(=O)N[C@@H](CCC(=O)O)C(=O)N[C@@H](CC(C)C)C(=O)N[C@@H](C)C(=O)N[C@H](C(=O)N[C@@H](Cc1ccc(O)cc1)C(=O)N1CCC[C@H]1C(=O)N[C@@H](CCCNC(=N)N)C(=O)N[C@H](C(=O)N[C@@H](CCC(=O)O)C(=O)N[C@H](C(=O)NCC(=O)N[C@@H](CO)C(=O)NCC(=O)N[C@@H](CO)C(=O)N1CCC[C@H]1C(N)=O)[C@@H](C)O)[C@@H](C)O)[C@@H](C)O [compound 57, [N-terminal(C20 diacid-gGlu), 1A, 23Y, 30S, 31G]mimylin] ({C20 diacid-γGlu}-AASELSTAALGRLSAELHELATYPRTETGSGSP-NH2) |  |  |  |  |  |  |  |  | 0.02 | ≥ 200 | ≥ 200 | ≥ 200 | ≥ 200 | ≥ 200 | ≥ 200 | ≥ 200 | ≥ 200 |  |

Continued, values first:

| Solubility ([1]; pH 3.0) | Solubility ([1]; pH 4.0) | Solubility ([1]; pH 5.0) | Solubility ([1]; pH 6.0) | Solubility ([1]; pH 6.5) | Solubility ([1]; pH 7.0) | Solubility ([1]; pH 7.5) | Solubility ([1]; pH 8.0) | EC50 [2] [nM] | solubility at 18 h ([1]; bistrispropane buffer, pH 6.5) [µM] | solubility at 18 h ([1]; bistrispropane buffer, pH 7.5) [µM] | solubility at 18 h ([1]; bistrispropane buffer, pH 6.0) [µM] | solubility at 18 h ([1]; bistrispropane buffer, pH 7.0) [µM] | solubility at 18 h ([1]; bistrispropane buffer, pH 8.0) [µM] | solubility at 18 h ([1]; glycylglycine buffer, pH 3.0) [µM] | solubility at 18 h ([1]; glycylglycine buffer, pH 4.0) [µM] | solubility at 18 h ([1]; glycylglycine buffer, pH 5.0) [µM] | EC50 [3] [nM] | SMILES |
| --- | --- | --- | --- | --- | --- | --- | --- | --- | --- | --- | --- | --- | --- | --- | --- | --- | --- | --- |
|  |  |  |  |  |  |  |  | 0.036 | ≥ 200 | ≥ 200 | ≥ 200 | ≥ 200 | ≥ 200 | ≥ 200 | ≥ 200 | ≥ 200 | 0.072 | CC(=O)N[C@@H](C)C(=O)N[C@@H](CO)C(=O)N[C@@H](CCCCNC(=O)CC[C@H](NC(=O)CCCCCCCCCCCCCCCCCCC(=O)O)C(=O)O)C(=O)N[C@@H](CC(C)C)C(=O)N[C@@H](CO)C(=O)N[C@H](C(=O)N[C@@H](C)C(=O)N[C@@H](C)C(=O)N[C@@H](CC(C)C)C(=O)NCC(=O)N[C@@H](CCCNC(=N)N)C(=O)N[C@@H](CC(C)C)C(=O)N[C@@H](CO)C(=O)N[C@@H](C)C(=O)N[C@@H](CCC(=O)O)C(=O)N[C@@H](CC(C)C)C(=O)N[C@@H](Cc1c[nH]cn1)C(=O)N[C@@H](CCC(=O)O)C(=O)N[C@@H](CC(C)C)C(=O)N[C@@H](C)C(=O)N[C@H](C(=O)N[C@@H](CC(C)C)C(=O)N1CCC[C@H]1C(=O)N[C@@H](CCCNC(=N)N)C(=O)N[C@H](C(=O)N[C@@H](CCC(=O)O)C(=O)N[C@H](C(=O)NCC(=O)N[C@@H](CO)C(=O)NCC(=O)N[C@@H](CO)C(=O)N1CCC[C@H]1C(N)=O)[C@@H](C)O)[C@@H](C)O)[C@@H](C)O)[C@@H](C)O [compound 68, [N-terminal(acetyl), des1, 4K(C20 diacid-gGlu), 30S, 31G]mimylin] (Ac-ASK([γGlu-C20 diacid])LSTAALGRLSAELHELATLPRTETGSGSP-NH2) |
|  |  |  |  |  |  |  |  |  | ≥ 200 | ≥ 200 | ≥ 200 | ≥ 200 | ≥ 200 | ≥ 200 | ≥ 200 | ≥ 200 |  | CC(C)C[C@H](NC(=O)[C@H](CCC(=O)O)NC(=O)[C@H](C)NC(=O)[C@@H](NC(=O)[C@H](CC(C)C)NC(=O)[C@H](CCCNC(=N)N)NC(=O)CNC(=O)[C@H](CC(C)C)NC(=O)[C@@H](NC(=O)[C@H](C)NC(=O)[C@@H](NC(=O)[C@@H](NC(=O)[C@H](CC(C)C)NC(=O)[C@H](CCC(=O)O)NC(=O)[C@H](CO)NC(=O)[C@H](C)NC(=O)CC[C@H](NC(=O)CCCCCCCCCCCCCCCCC(=O)O)C(=O)O)[C@@H](C)O)[C@@H](C)O)C(C)C)[C@@H](C)O)C(=O)N[C@@H](Cc1c[nH]cn1)C(=O)N[C@@H](CCC(=O)O)C(=O)N[C@@H](CC(C)C)C(=O)N[C@@H](CCC(=O)O)C(=O)N[C@H](C(=O)N[C@@H](CC(C)C)C(=O)N1CCC[C@H]1C(=O)N[C@@H](CCCNC(=N)N)C(=O)N[C@H](C(=O)N[C@@H](CCC(=O)O)C(=O)N[C@H](C(=O)NCC(=O)N[C@H](C(=O)NCC(=O)N[C@H](C(=O)N1CCC[C@H]1C(N)=O)[C@@H](C)O)[C@@H](C)O)[C@@H](C)O)[C@@H](C)O)[C@@H](C)O [compound 105, [N-terminal(C18 diacid-gGlu), des1, 6T, 9V, 14T, 21E, 30T, 31G, 32T]mimylin] ({C18 diacid-γGlu}-ASELTTAVLGRLTAELHELETLPRTETGTGTP-NH2) |
|  |  |  |  |  |  |  |  |  | ≥ 200 | ≥ 200 | ≥ 200 | ≥ 200 | ≥ 200 | ≥ 200 | 65 (≈ 257 µg/mL) | 7 (≈ 27.6 µg/mL) | 0.142 | CC(C)C[C@H](NC(=O)[C@H](CCCNC(=N)N)NC(=O)CNC(=O)[C@H](CC(C)C)NC(=O)[C@@H](NC(=O)[C@H](C)NC(=O)[C@@H](NC(=O)[C@H](CO)NC(=O)[C@H](CC(C)C)NC(=O)[C@H](CCC(=O)O)NC(=O)[C@H](CO)NC(=O)[C@H](C)NC(=O)CC[C@H](NC(=O)CCCCCCCCCCCCCCCCCCC(=O)O)C(=O)O)[C@@H](C)O)C(C)C)C(=O)N[C@@H](CO)C(=O)N[C@@H](CCC(N)=O)C(=O)N[C@@H](CCC(=O)O)C(=O)N[C@@H](CC(C)C)C(=O)N[C@@H](Cc1c[nH]cn1)C(=O)N[C@@H](CCC(=O)O)C(=O)N[C@@H](CC(C)C)C(=O)N[C@@H](CCC(N)=O)C(=O)N[C@H](C(=O)N[C@@H](Cc1ccc(O)cc1)C(=O)N1CCC[C@H]1C(=O)N[C@@H](CCCNC(=N)N)C(=O)N[C@H](C(=O)N[C@@H](CCC(=O)O)C(=O)N[C@H](C(=O)NCC(=O)N[C@@H](CO)C(=O)NCC(=O)N[C@H](C(=O)N[C@@H](Cc1ccc(O)cc1)C(N)=O)[C@@H](C)O)[C@@H](C)O)[C@@H](C)O)[C@@H](C)O [compound 114, [N-terminal(C20 diacid-gGlu), des1, 9V, 15Q, 21Q, 23Y, 30S, 31G, 32T, 33Y]mimylin] |
